{"source": "patent US4376772A", "about": "“Use of piperazinyl-imidazo[1,2-a]pyrazines in sedation” (Merck & Co., Inc., priority 1981, dated 1983)", "key": {"[1]": {"target": "T1, α2-adrenergic receptor ([3H] clonidine binding site in calf cerebral cortex) (Bos taurus, UniProt Q28838)", "T1 construct": "from tissue; host or cells: calf cerebral cortex", "T1 sequence (Q28838 1-468)": "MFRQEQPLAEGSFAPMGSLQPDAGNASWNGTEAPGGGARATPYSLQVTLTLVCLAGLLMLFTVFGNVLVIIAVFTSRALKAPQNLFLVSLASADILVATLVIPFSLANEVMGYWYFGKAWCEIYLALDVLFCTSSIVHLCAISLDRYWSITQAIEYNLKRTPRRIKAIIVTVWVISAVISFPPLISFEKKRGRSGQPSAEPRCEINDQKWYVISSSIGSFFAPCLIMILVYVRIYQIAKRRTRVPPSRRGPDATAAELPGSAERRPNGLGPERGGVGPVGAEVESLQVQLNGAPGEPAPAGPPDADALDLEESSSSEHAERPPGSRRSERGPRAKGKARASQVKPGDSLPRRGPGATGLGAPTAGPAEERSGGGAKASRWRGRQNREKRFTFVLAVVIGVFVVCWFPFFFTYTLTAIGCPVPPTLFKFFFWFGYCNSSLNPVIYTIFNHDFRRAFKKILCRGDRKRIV", "test": "α2-adrenergic receptor binding ([3H] clonidine binding site)", "experimental": "Binding to the α2 -adrenergic receptor was determined by the method of Lyon and Randall, Life Sciences, 26, 1121 (1980) and also is expressed in Table I as Ki representing the affinity of each compound for the [^3 H] clonidine binding site in calf cerebral cortex."}, "[2]": {"target": "α1-adrenergic receptor ([3H] prazosin binding site in calf cerebral cortex)", "test": "α1-adrenergic receptor binding ([3H] prazosin binding site)", "experimental": "The α1 - and α2 -adrenergic receptor binding as determined for some of the active compounds of this invention are shown in Table I.\nExtent of binding to the α1 -adrenergic receptor was determined by the method of Greengrass and Bremner, Eur. J. Pharmacol., 55, 323 (1979) and is expressed in Table I as Ki, representing the affinity of each compound for the [^3 H] prazosin binding site in calf cerebral cortex."}, "[3]": {"system": "α-Methyldopa (α-MD) Depression of Rat Locomotor Activity", "test": "Antagonism of α-methyldopa (α-MD) depression of rat locomotor activity", "assay_type": "in vivo, Female Sprague-Dawley rats", "conditions": "20-minute period", "excerpt": "Female Sprague-Dawley rats (Sprague-Dawley, Madison, Wis.) weighing 55-90 g were used in these studies. The test apparatus consisted of 10 activity chambers in a closed metal cabinet separated into individual compartments measuring 43×43 cm with a solid partition between each chamber. Ventilation in the cabinet was provided by two high speed fans, and background noise was supplied with a Grason-Stadler Noise Generator. The activity chambers were constructed from clear plexiglass cylinders, 30 cm high by 30 cm in diameter. Two infrared photocells were mounted at a height of 3 cm above the floor, the receivers being at the same height and directly opposite. Interruption of either of the beams registered independently as an activity count. The accumulated locomotor activity counts were stored in a microprocessor-based acquisition system and printed out at a preprogrammed interval on an ASR-33 Teletype unit. The decrease in locomotor activity caused by α-MD is most readily demonstrable during the time immediately following introduction of the rats into the test apparatus. Therefore, activity counts were recorded for a 20-minute period, beginning with placement of the animals in the test chambers. Animals with the various treatments were systematically rotated through the chambers. […] Dunnett's test was used for comparison of several treatment groups with a control group and the least significant difference test for comparison of the means of any two treatment groups. A P value of 0.05 (two-sided) was considered as indicating significance.\nAnimals were pretreated (3 hours, 4 minutes) with α-MD (200 or 400 mg/kg, p.o.), and various doses of 8-(1-piperazinyl)imidazo[1,2-a]pyrazine.2HCl.H2 O (0.11-3.0 mg/kg, sc) 40 minutes prior to testing. Vehicles used in control animals were 1% methylcellulose (in which α-MD was suspended) and saline (in which the experimental compound was dissolved)."}, "[4]": {"system": "sedation produced by clonidine", "conditions": "Drew et al., 1979; cited from earlier work"}, "[5]": {"system": "locomotor depressant effects of methyldopa in rats", "conditions": "Clineschmidt et al., 1980; cited from earlier work"}, "[6]": {"system": "clonidine-induced sedation in man", "conditions": "Autret et al., 1977; cited from earlier work"}}}
{"smiles": "Clc1cn2ccnc2c(N2CCNCC2)n1", "note": "[Compound 1]", "values": [{"measurement": "Ki", "setting": "[1]", "result": 73, "unit": "nM"}, {"measurement": "Ki", "setting": "[2]", "result": 250, "unit": "nM"}]}
{"smiles": "Clc1cnc2c(N3CCNCC3)nccn12", "note": "[Compound 2]", "values": [{"measurement": "Ki", "setting": "[1]", "result": 240, "unit": "nM"}, {"measurement": "Ki", "setting": "[2]", "result": 2800, "unit": "nM"}]}
{"smiles": "c1cn2ccnc2c(N2CCNCC2)n1", "note": "[Compound 3, 8-(1-piperazinyl)imidazo[1,2-a]pyrazine]", "values": [{"measurement": "Ki", "setting": "[1]", "result": 15, "unit": "nM"}, {"measurement": "Ki", "setting": "[2]", "result": 3100, "unit": "nM"}]}
{"smiles": "CN1CCN(c2nc(Cl)cn3ccnc23)CC1", "note": "[Compound 4]", "values": [{"measurement": "Ki", "setting": "[1]", "result": 121, "unit": "nM"}, {"measurement": "Ki", "setting": "[2]", "result": 380, "unit": "nM"}]}
{"smiles": "Cl.Cl.O.c1cn2ccnc2c(N2CCNCC2)n1", "note": "[Compound, 8-(1-piperazinyl)imidazo[1,2-a]pyrazine dihydrochloride hydrate]", "values": [{"measurement": "locomotor activity (square roots of activity counts)", "setting": "[3]; experiment 1, compound 0.11 mg/kg s.c. 40 min, with α-MD 400 mg/kg p.o.", "result": "5.1 ± 0.5"}, {"measurement": "locomotor activity (square roots of activity counts)", "setting": "[3]; experiment 1, compound 0.33 mg/kg s.c. 40 min, with α-MD 400 mg/kg p.o.", "result": "8.4 ± 0.9"}, {"measurement": "locomotor activity (square roots of activity counts)", "setting": "[3]; experiment 1, compound 1.0 mg/kg s.c. 40 min, with α-MD 400 mg/kg p.o.", "result": "11.7 ± 1.3"}, {"measurement": "locomotor activity (square roots of activity counts)", "setting": "[3]; experiment 1, compound 3 mg/kg s.c. 40 min after α-MD 400 mg/kg p.o.", "result": "11.6 ± 1.3"}, {"measurement": "locomotor activity (square roots of activity counts)", "setting": "[3]; experiment 2, compound 0.11 mg/kg s.c. 40 min, with α-MD 200 mg/kg p.o.", "result": "8.4 ± 1.1"}, {"measurement": "locomotor activity (square roots of activity counts)", "setting": "[3]; experiment 2, compound 0.33 mg/kg s.c. 40 min, with α-MD 200 mg/kg p.o.", "result": "9.5 ± 1.2"}, {"measurement": "locomotor activity (square roots of activity counts)", "setting": "[3]; experiment 2, compound 1.0 mg/kg s.c. 40 min, with α-MD 200 mg/kg p.o.", "result": "11.4 ± 1.2"}, {"measurement": "locomotor activity (square roots of activity counts)", "setting": "[3]; experiment 2, compound 3.0 mg/kg s.c. 40 min, with α-MD 200 mg/kg p.o.", "result": "12.2 ± 1.2"}]}
{"smiles": "COC(=O)[C@@H]1[C@H]2C[C@H]3c4[nH]c5ccccc5c4CCN3C[C@@H]2CC[C@@H]1O", "note": "[yohimbine]", "values": [{"measurement": "effect on sedation produced by clonidine", "setting": "[4]", "result": "antagonizes the sedation produced by clonidine"}, {"measurement": "effect on locomotor depressant effects of methyldopa", "setting": "[5]", "result": "antagonizes"}, {"measurement": "effect on clonidine-induced sedation in man", "setting": "[6]", "result": "reduce clonidine-induced sedation in man"}]}
{"smiles": "C[C@](N)(Cc1ccc(O)c(O)c1)C(=O)O", "note": "[α-MD, α-Methyldopa, reference compound]", "values": [{"measurement": "locomotor activity (square roots of activity counts)", "setting": "[3]; experiment 1, α-MD 400 mg/kg p.o. 3 hr + saline s.c.", "result": "4.7 ± 0.7"}, {"measurement": "locomotor activity (square roots of activity counts)", "setting": "[3]; experiment 2, α-MD 200 mg/kg p.o. 3 hr + saline s.c.", "result": "6.8 ± 0.5"}]}
